The record followed here is the supplement of paper PMC10307832.

Experiment in all cases: relative viability (nuclei count vs DMSO), 5 days (fraction); higher = more cells survive
Compound in the assay “IU1-47 + OSI-027”: CC1=CC(=C(N1C2=CC=C(C=C2)Cl)C)C(=O)CN3CCCCC3 [IU1-47] + COc1cccc2cc(-c3nc([C@H]4CC[C@H](C(=O)O)CC4)n4ncnc(N)c34)[nH]c12 [OSI-027] (partner 0.5 µM)
Put shortly:
(§1)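 Nuclei were stained with Hoechst during a one-step fixation (final 0.05% Triton X-100, 1% formaldehyde, 1 ug/ml Hoechst) carried out 5 days after dosing, then counted on 4× images. The cells, lung cancer lines in 1536-well plates, had been dosed by pin tool the day after seeding with one drug alone or a fixed anchor-drug dose plus five library-drug doses (not always all listed) in √10 steps. Relative viability is the nuclei count in treated wells divided by that in vehicle wells, and each value is the median of duplicate plates.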

Compound in the assay “FG-4592 + Alpelisib”: Cc1nc(C(=O)NCC(=O)O)c(O)c2ccc(Oc3ccccc3)cc12 [FG-4592] + Cc1nc(NC(=O)N2CCC[C@H]2C(N)=O)sc1-c1ccnc(C(C)(C)C(F)(F)F)c1 [Alpelisib] (partner 2 µM)
In short, it runs like this: as §1

Compound in the assay “IU1-47 + AZD7762”: CC1=CC(=C(N1C2=CC=C(C=C2)Cl)C)C(=O)CN3CCCCC3 [IU1-47] + NC(=O)Nc1cc(-c2cccc(F)c2)sc1C(=O)N[C@H]1CCCNC1 [AZD7762] (partner 0.2 µM)
Put shortly: as §1

Compound in the assay “IU1-47 + Tozasertib”: CC1=CC(=C(N1C2=CC=C(C=C2)Cl)C)C(=O)CN3CCCCC3 [IU1-47] + Cc1cc(Nc2cc(N3CCN(C)CC3)nc(Sc3ccc(NC(=O)C4CC4)cc3)n2)n[nH]1 [Tozasertib] (partner 0.1 µM)
In short, it runs like this: as §1

On to HCC-44, for which the relative viability in the assay with IU1-47 + OSI-027 (first compound 0.08 µM) is 0.403; in the assay with IU1-47 + OSI-027 (first compound 0.253 µM), 0.483; in the assay with IU1-47 + OSI-027 (first compound 0.8 µM), 0.593; with IU1-47 + OSI-027 (first compound 2.53 µM), 0.434; in the assay with IU1-47 + OSI-027 (first compound 8 µM), 0.389; in the assay with FG-4592 + Alpelisib (first compound 0.08 µM) it was 0.767. Further, the relative viability with FG-4592 + Alpelisib (first compound 0.253 µM) came out at 0.786; with FG-4592 + Alpelisib (first compound 0.8 µM), 0.876; in the assay with FG-4592 + Alpelisib (first compound 2.53 µM), 0.936; with FG-4592 + Alpelisib (first compound 8 µM), 0.797; with IU1-47 + AZD7762 (first compound 0.08 µM), 1; in the assay with IU1-47 + AZD7762 (first compound 0.253 µM), 1.07. The relative viability with IU1-47 + AZD7762 (first compound 0.8 µM) came to 1.04; with IU1-47 + AZD7762 (first compound 2.53 µM), 0.959; with IU1-47 + AZD7762 (first compound 8 µM) it was 1.04; in the assay with IU1-47 + Tozasertib (first compound 0.08 µM) it was 1.13; with IU1-47 + Tozasertib (first compound 0.253 µM), 1.16; in the assay with IU1-47 + Tozasertib (first compound 0.8 µM), 0.968. Also, the relative viability in the assay with IU1-47 + Tozasertib (first compound 2.53 µM) worked out at 0.995; with IU1-47 + Tozasertib (first compound 8 µM), 1.22.

For HCC-78, the relative viability is 0.38 in the assay with IU1-47 + OSI-027 (first compound 0.08 µM); 0.354 with IU1-47 + OSI-027 (first compound 0.253 µM); 0.337 in the assay with IU1-47 + OSI-027 (first compound 0.8 µM); 0.42 in the assay with IU1-47 + OSI-027 (first compound 2.53 µM); 0.353 with IU1-47 + OSI-027 (first compound 8 µM); 0.379 in the assay with FG-4592 + Alpelisib (first compound 0.08 µM). Besides, the relative viability in the assay with FG-4592 + Alpelisib (first compound 0.253 µM) turned out to be 0.339; with FG-4592 + Alpelisib (first compound 0.8 µM), 0.223; with FG-4592 + Alpelisib (first compound 2.53 µM) it was 0.287; with FG-4592 + Alpelisib (first compound 8 µM), 0.308; with IU1-47 + AZD7762 (first compound 0.08 µM), 0.606; in the assay with IU1-47 + AZD7762 (first compound 0.253 µM), 0.546. Further, the relative viability was found to be 0.638 with IU1-47 + AZD7762 (first compound 0.8 µM); 0.654 with IU1-47 + AZD7762 (first compound 2.53 µM); 0.609 with IU1-47 + AZD7762 (first compound 8 µM); 0.37 with IU1-47 + Tozasertib (first compound 0.08 µM); 0.508 with IU1-47 + Tozasertib (first compound 0.253 µM); 0.479 with IU1-47 + Tozasertib (first compound 0.8 µM). In addition, the values for the relative viability with IU1-47 + Tozasertib (first compound 2.53 µM) and with IU1-47 + Tozasertib (first compound 8 µM) were 0.372 and 0.404, respectively.

For the cell line NCI-H727, the relative viability with IU1-47 + OSI-027 (first compound 0.08 µM) is 0.634; with IU1-47 + OSI-027 (first compound 0.253 µM), 0.659; with IU1-47 + OSI-027 (first compound 0.8 µM), 0.724; with IU1-47 + OSI-027 (first compound 2.53 µM) it was 0.525; in the assay with IU1-47 + OSI-027 (first compound 8 µM), 0.454; with FG-4592 + Alpelisib (first compound 0.08 µM), 0.533. Further, the relative viability came to 0.582 in the assay with FG-4592 + Alpelisib (first compound 0.253 µM); 0.545 in the assay with FG-4592 + Alpelisib (first compound 0.8 µM); 0.56 with FG-4592 + Alpelisib (first compound 2.53 µM); 0.561 with FG-4592 + Alpelisib (first compound 8 µM); 0.582 in the assay with IU1-47 + AZD7762 (first compound 0.08 µM); 0.539 with IU1-47 + AZD7762 (first compound 0.253 µM). For the same cell line, the relative viability was 0.539 with IU1-47 + AZD7762 (first compound 0.8 µM); 0.512 with IU1-47 + AZD7762 (first compound 2.53 µM); 0.58 with IU1-47 + AZD7762 (first compound 8 µM); 0.655 in the assay with IU1-47 + Tozasertib (first compound 0.08 µM); 0.562 with IU1-47 + Tozasertib (first compound 0.253 µM); 0.589 with IU1-47 + Tozasertib (first compound 0.8 µM). The relative viability with IU1-47 + Tozasertib (first compound 2.53 µM) came out at 0.58; with IU1-47 + Tozasertib (first compound 8 µM), 0.568.

Regarding NCI-H2087, the relative viability with IU1-47 + OSI-027 (first compound 0.08 µM) was 0.834; in the assay with IU1-47 + OSI-027 (first compound 0.253 µM), 0.582; with IU1-47 + OSI-027 (first compound 0.8 µM), 0.506; with IU1-47 + OSI-027 (first compound 8 µM), 0.531; with FG-4592 + Alpelisib (first compound 0.08 µM), 1.11; with FG-4592 + Alpelisib (first compound 0.253 µM), 0.956. Besides, the relative viability with FG-4592 + Alpelisib (first compound 0.8 µM) is 1.11; in the assay with FG-4592 + Alpelisib (first compound 2.53 µM), 1.05; in the assay with FG-4592 + Alpelisib (first compound 8 µM), 1.03; with IU1-47 + AZD7762 (first compound 0.08 µM), 1.45; in the assay with IU1-47 + AZD7762 (first compound 0.253 µM), 1.29; with IU1-47 + AZD7762 (first compound 0.8 µM) it was 1.53. The relative viability was 1.31 in the assay with IU1-47 + AZD7762 (first compound 2.53 µM); 1.24 in the assay with IU1-47 + AZD7762 (first compound 8 µM); 0.225 with IU1-47 + Tozasertib (first compound 0.08 µM); 0.224 in the assay with IU1-47 + Tozasertib (first compound 0.253 µM); 0.287 with IU1-47 + Tozasertib (first compound 0.8 µM); 0.241 with IU1-47 + Tozasertib (first compound 8 µM).

On to BEN, for which the relative viability in the assay with IU1-47 + OSI-027 (first compound 0.08 µM) is 0.294; with IU1-47 + OSI-027 (first compound 0.253 µM), 0.302; with IU1-47 + OSI-027 (first compound 0.8 µM), 0.296; with IU1-47 + OSI-027 (first compound 8 µM) it was 0.268; in the assay with FG-4592 + Alpelisib (first compound 0.08 µM), 0.831; in the assay with FG-4592 + Alpelisib (first compound 0.253 µM) it was 0.807. The relative viability with FG-4592 + Alpelisib (first compound 0.8 µM) was 0.753; in the assay with FG-4592 + Alpelisib (first compound 2.53 µM) it was 0.965; with FG-4592 + Alpelisib (first compound 8 µM), 0.701; in the assay with IU1-47 + AZD7762 (first compound 0.08 µM), 0.677; in the assay with IU1-47 + AZD7762 (first compound 0.253 µM) it was 0.638; with IU1-47 + AZD7762 (first compound 0.8 µM), 0.761. Also, the relative viability with IU1-47 + AZD7762 (first compound 2.53 µM) came out at 0.535; in the assay with IU1-47 + AZD7762 (first compound 8 µM), 0.739; with IU1-47 + Tozasertib (first compound 0.08 µM), 0.499; with IU1-47 + Tozasertib (first compound 0.253 µM), 0.444; with IU1-47 + Tozasertib (first compound 0.8 µM), 0.49; in the assay with IU1-47 + Tozasertib (first compound 2.53 µM) it was 0.631. In addition, in the assay with IU1-47 + Tozasertib (first compound 8 µM), the relative viability was 0.506.

For the cell line LCLC-103H, the relative viability amounted to 0.508 with IU1-47 + OSI-027 (first compound 0.08 µM); 0.492 with IU1-47 + OSI-027 (first compound 0.253 µM); 0.472 with IU1-47 + OSI-027 (first compound 0.8 µM); 0.484 with IU1-47 + OSI-027 (first compound 2.53 µM); 0.416 in the assay with IU1-47 + OSI-027 (first compound 8 µM); 0.887 with FG-4592 + Alpelisib (first compound 0.08 µM). Moreover, the relative viability was 0.875 with FG-4592 + Alpelisib (first compound 0.253 µM); 0.749 with FG-4592 + Alpelisib (first compound 0.8 µM); 0.966 with FG-4592 + Alpelisib (first compound 2.53 µM); 1.06 with FG-4592 + Alpelisib (first compound 8 µM); 0.84 with IU1-47 + AZD7762 (first compound 0.08 µM); 0.948 with IU1-47 + AZD7762 (first compound 0.253 µM). Also, the relative viability in the assay with IU1-47 + AZD7762 (first compound 0.8 µM) stood at 0.797; in the assay with IU1-47 + AZD7762 (first compound 2.53 µM), 0.54; with IU1-47 + AZD7762 (first compound 8 µM), 0.807; in the assay with IU1-47 + Tozasertib (first compound 0.08 µM), 0.576; with IU1-47 + Tozasertib (first compound 0.253 µM) it was 0.586; with IU1-47 + Tozasertib (first compound 0.8 µM), 0.531. Further, the relative viability with IU1-47 + Tozasertib (first compound 2.53 µM) is 0.503; in the assay with IU1-47 + Tozasertib (first compound 8 µM), 0.451.

Consider EKVX, for which the relative viability in the assay with IU1-47 + OSI-027 (first compound 0.08 µM) was 0.858; with IU1-47 + OSI-027 (first compound 0.253 µM), 0.862; with IU1-47 + OSI-027 (first compound 0.8 µM) it was 0.726; with IU1-47 + OSI-027 (first compound 2.53 µM), 0.658; with IU1-47 + OSI-027 (first compound 8 µM) it was 0.828; in the assay with FG-4592 + Alpelisib (first compound 0.08 µM) it was 0.786. Moreover, the relative viability is 0.858 with FG-4592 + Alpelisib (first compound 0.253 µM); 0.932 in the assay with FG-4592 + Alpelisib (first compound 0.8 µM); 0.79 in the assay with FG-4592 + Alpelisib (first compound 2.53 µM); 0.932 in the assay with FG-4592 + Alpelisib (first compound 8 µM); 0.894 with IU1-47 + AZD7762 (first compound 0.08 µM); 0.866 with IU1-47 + AZD7762 (first compound 0.253 µM). Further, the relative viability with IU1-47 + AZD7762 (first compound 0.8 µM) turned out to be 0.725; with IU1-47 + AZD7762 (first compound 8 µM) it was 0.756; with IU1-47 + Tozasertib (first compound 0.08 µM) it was 0.418; with IU1-47 + Tozasertib (first compound 0.253 µM), 0.433; in the assay with IU1-47 + Tozasertib (first compound 0.8 µM), 0.367; with IU1-47 + Tozasertib (first compound 2.53 µM), 0.341. The relative viability with IU1-47 + Tozasertib (first compound 8 µM) was found to be 0.349.
